Tests used:
[1] = Microsomal metabolic stability, rat liver microsomes (RLM); conditions: rat liver microsomes

With `CC(CN(C)C)n1c(=O)c2cc(F)ccc2n2c(=S)[nH]nc12` (stereo not drawn) [compound 71] the “PAMPA” value was 186 ×10⁻⁶ cm/s, the “Solub.” value (Aqueous solubility; aqueous solubility) was greater than 47 µg/mL and the “t1/2 (min, RLM)” value [1] was greater than 30 min.
In the case of `O=C(NCCCn1c(=O)c2cc(F)ccc2n2c(=S)[nH]nc12)C1CCNCC1` [compound 114], the “Solub.” value (Aqueous solubility; aqueous solubility) was greater than 60 µg/mL and the “t1/2 (min, RLM)” value [1] was greater than 30 min.
With `O=c1c2ccccc2n2c(=O)[nH]nc2n1CCc1ccccc1` [compound 15] the “Solub.” value (Aqueous solubility; aqueous solubility) was less than 1 µg/mL.
For `NS(=O)(=O)CCCC(=O)NCCCn1c(=O)c2cc(F)ccc2n2c(=S)[nH]nc12` [compound 107], the “PAMPA” value was 3.0 ×10⁻⁶ cm/s, the “Solub.” value (Aqueous solubility; aqueous solubility) was 42.4 µg/mL and the “t1/2 (min, RLM)” value [1] was greater than 30 min.
For `O=C(O)CCC(=O)NCCCn1c(=O)c2cc(F)ccc2n2c(=S)[nH]nc12` [compound 106], the “PAMPA” value was less than 1 ×10⁻⁶ cm/s, the “Solub.” value (Aqueous solubility; aqueous solubility) was greater than 58 µg/mL and the “t1/2 (min, RLM)” value [1] was greater than 30 min.
In the case of `O=C(Cc1ccc(F)cc1)NCCCn1c(=O)c2cc(F)ccc2n2c(=S)[nH]nc12` [compound 123, N-(3-(7-fluoro-5-oxo-1-thioxo-1,2-dihydro-[1,2,4]triazolo[4,3-a]quinazolin-4(5H)-yl)propyl)-2-(4-fluorophenyl)acetamide], the “t1/2 (min, RLM)” value [1] was 26.3 min.
In the case of `O=c1c2cc(F)ccc2n2c(=S)[nH]nc2n1CCCO` [compound 66], the “PAMPA” value was 222 ×10⁻⁶ cm/s, the “Solub.” value (Aqueous solubility; aqueous solubility) was greater than 43 µg/mL and the “t1/2 (min, RLM)” value [1] was greater than 30 min.
For `CN1CCN(CC(=O)NCCCn2c(=O)c3cc(F)ccc3n3c(=S)[nH]nc23)CC1` [compound 117], the “PAMPA” value was less than 1 ×10⁻⁶ cm/s, the “Solub.” value (Aqueous solubility; aqueous solubility) was greater than 64 µg/mL and the “t1/2 (min, RLM)” value [1] was greater than 30 min.
For `CN(C)c1ccc2c(c1)c(=O)n(CCc1ccccc1)c1n[nH]c(=S)n21` [Cmpd 45], the “PAMPA” value was 356 ×10⁻⁶ cm/s.
With `O=c1c2cc(F)ccc2n2c(=S)[nH]nc2n1CCP(=O)(O)O` [compound 77] the “Solub.” value (Aqueous solubility; aqueous solubility) was greater than 51 µg/mL.
In the case of `O=c1c2cc(F)ccc2n2c(=S)[nH]nc2n1CCC(F)(F)F` [compound 65], the “PAMPA” value was 117 ×10⁻⁶ cm/s, the PAMPA permeability (pH 7.4) was “moderate to good permeability” and the solubility (Aqueous solubility) was “moderate to good solubility”. The “Solub.” value (Aqueous solubility; aqueous solubility) was 17.3 µg/mL and the “t1/2 (min, RLM)” value [1] was greater than 30 min.
For `O=C(CN1CCOCC1)NCCCn1c(=O)c2cc(F)ccc2n2c(=S)[nH]nc12` [compound 118], the “PAMPA” value was less than 1 ×10⁻⁶ cm/s, the “Solub.” value (Aqueous solubility; aqueous solubility) was greater than 62 µg/mL and the “t1/2 (min, RLM)” value [1] was greater than 30 min.
With `O=c1c2cc(F)ccc2n2c(=S)[nH]nc2n1CCN1CCCCC1` [compound 88] the “PAMPA” value was 358 ×10⁻⁶ cm/s, the “Solub.” value (Aqueous solubility; aqueous solubility) was 2.4 µg/mL and the “t1/2 (min, RLM)” value [1] was greater than 30 min.
For `CC(C)(C)OC(=O)NC1CCC(C(=O)NCCCn2c(=O)c3cc(F)ccc3n3c(=S)[nH]nc23)CC1` (stereo not drawn) [compound 110], the “PAMPA” value was 330 ×10⁻⁶ cm/s, the “Solub.” value (Aqueous solubility; aqueous solubility) was greater than 77 µg/mL and the “t1/2 (min, RLM)” value [1] was 24.8 min.
With `O=C(Cc1ccc(O)cc1)NCCCn1c(=O)c2cc(F)ccc2n2c(=S)[nH]nc12` [compound 127, N-(3-(7-fluoro-5-oxo-1-thioxo-1,2-dihydro-[1,2,4]triazolo[4,3-a]quinazolin-4(5H)-yl)propyl)-2-(4-hydroxyphenyl)acetamide] the “Solub.” value (Aqueous solubility; aqueous solubility) was 31.0 µg/mL and the “t1/2 (min, RLM)” value [1] was greater than 30 min.
For `O=C(NCCCn1c(=O)c2cc(F)ccc2n2c(=S)[nH]nc12)C1CCCCN1` (stereo not drawn) [compound 112], the “Solub.” value (Aqueous solubility; aqueous solubility) was greater than 60 µg/mL and the “t1/2 (min, RLM)” value [1] was greater than 30 min.
With `O=c1c2cc(F)ccc2n2c(=S)[nH]nc2n1CCN1CCOCC1` [compound 90] the “PAMPA” value was 67.0 ×10⁻⁶ cm/s, the “Solub.” value (Aqueous solubility; aqueous solubility) was greater than 52 µg/mL and the “t1/2 (min, RLM)” value [1] was greater than 30 min.
With `CCn1c(=O)c2ccccc2n2c(=S)[nH]nc12` [compound 20] the “PAMPA” value was 427 ×10⁻⁶ cm/s, the “Solub.” value (Aqueous solubility; aqueous solubility) was greater than 36 µg/mL and the “t1/2 (min, RLM)” value [1] was greater than 30 min.
With `CC(=O)NCCn1c(=O)c2cc(F)ccc2n2c(=S)[nH]nc12` [compound 72] the “Solub.” value (Aqueous solubility; aqueous solubility) was greater than 47 µg/mL and the “t1/2 (min, RLM)” value [1] was greater than 30 min.
With `NCCn1c(=O)c2cc(F)ccc2n2c(=S)[nH]nc12` [compound 67] the “Solub.” value (Aqueous solubility; aqueous solubility) was greater than 41 µg/mL and the “t1/2 (min, RLM)” value [1] was greater than 30 min.
With `O=c1c2cc(F)ccc2n2c(=S)[nH]nc2n1Cc1ccccc1` [compound 52] the “PAMPA” value was 841 ×10⁻⁶ cm/s, the “Solub.” value (Aqueous solubility; aqueous solubility) was 8.3 µg/mL and the “t1/2 (min, RLM)” value [1] was greater than 30 min.
With `CCOP(=O)(CCn1c(=O)c2cc(F)ccc2n2c(=S)[nH]nc12)OCC` [compound 78] the “Solub.” value (Aqueous solubility; aqueous solubility) was greater than 59 µg/mL and the “t1/2 (min, RLM)” value [1] was greater than 30 min.
For `O=c1c2cc(F)ccc2n2c(=S)[nH]nc2n1CCC1CCC(F)(F)CC1` [compound 93], the “PAMPA” value was 201 ×10⁻⁶ cm/s, the “Solub.” value (Aqueous solubility; aqueous solubility) was less than 1 µg/mL and the “t1/2 (min, RLM)” value [1] was greater than 30 min.
With `CC(C)(C)OC(=O)NCCCCCC(=O)NCCCn1c(=O)c2cc(F)ccc2n2c(=S)[nH]nc12` [Cmpd 101] the “PAMPA” value was 405 ×10⁻⁶ cm/s.
For `O=C(NCCCn1c(=O)c2cc(F)ccc2n2c(=S)[nH]nc12)c1ccccc1` [compound 74], the “PAMPA” value was 267 ×10⁻⁶ cm/s, the “Solub.” value (Aqueous solubility; aqueous solubility) was 21.9 µg/mL and the “t1/2 (min, RLM)” value [1] was greater than 30 min.
For `O=C(NCCCn1c(=O)c2cc(F)ccc2n2c(=S)[nH]nc12)C1CCCNC1` (stereo not drawn) [compound 113], the “Solub.” value (Aqueous solubility; aqueous solubility) was 29.6 µg/mL and the “t1/2 (min, RLM)” value [1] was greater than 30 min.
For `O=c1c2cc(F)ccc2n2c(=S)[nH]nc2n1CCc1ccccc1Cl` [compound 81], the “Solub.” value (Aqueous solubility; aqueous solubility) was 3.0 µg/mL and the “t1/2 (min, RLM)” value [1] was 22.8 min.
For `CC(C)OCCCn1c(=O)c2cc(Cl)ccc2n2c(=S)[nH]nc12` [compound 56], the “Solub.” value (Aqueous solubility; aqueous solubility) was 8.6 µg/mL.
For `CC(C)(C)[C@H]1CC[C@H](C(=O)NCCCn2c(=O)c3cc(F)ccc3n3c(=S)[nH]nc23)CC1` [compound 109], the “Solub.” value (Aqueous solubility; aqueous solubility) was 1.1 µg/mL and the “t1/2 (min, RLM)” value [1] was greater than 30 min.
With `O=C(Cc1cccc(C(F)(F)F)c1)NCCCn1c(=O)c2cc(F)ccc2n2c(=S)[nH]nc12` [compound 132, N-(3-(7-fluoro-5-oxo-1-thioxo-1,2-dihydro-[1,2,4]triazolo[4,3-a]quinazolin-4(5H)-yl)propyl)-2-(3-(trifluoromethyl)phenyl)acetamide] the “Solub.” value (Aqueous solubility; aqueous solubility) was 26.8 µg/mL and the “t1/2 (min, RLM)” value [1] was 17.3 min.
In the case of `CN(C)CCn1c(=O)c2cc(F)ccc2n2c(=S)[nH]nc12` [compound 70], the “PAMPA” value was 177 ×10⁻⁶ cm/s, the “Solub.” value (Aqueous solubility; aqueous solubility) was greater than 45 µg/mL and the “t1/2 (min, RLM)” value [1] was greater than 30 min.
For `CC(C)(C)OC(=O)N1CCN(CCn2c(=O)c3cc(F)ccc3n3c(=S)[nH]nc23)CC1` [compound 92], the “Solub.” value (Aqueous solubility; aqueous solubility) was 20.5 µg/mL and the “t1/2 (min, RLM)” value [1] was 26.3 min.
With `Cc1nnc2n(CCc3ccccc3)c(=O)c3cc(F)ccc3n12` [compound 17] the “Solub.” value (Aqueous solubility; aqueous solubility) was 11.0 µg/mL and the “t1/2 (min, RLM)” value [1] was 10.7 min.
In the case of `Nc1nnc2n(CCc3ccccc3)c(=O)c3cc(F)ccc3n12` [compound 16], the “PAMPA” value was 885 ×10⁻⁶ cm/s, the “Solub.” value (Aqueous solubility; aqueous solubility) was 2.2 µg/mL and the “t1/2 (min, RLM)” value [1] was 29.4 min.
In the case of `CC(C)NC(=O)CCn1c(=O)c2cc(Cl)ccc2n2c(=S)[nH]nc12` [compound 57], the “Solub.” value (Aqueous solubility; aqueous solubility) was 8.1 µg/mL.
In the case of `O=C(NCCCn1c(=O)c2cc(F)ccc2n2c(=S)[nH]nc12)c1ccc(Cn2ccnc2)cc1` [compound 119, 4-((1H-imidazol-1-yl)methyl)-N-(3-(7-fluoro-5-oxo-1-thioxo-1,2-dihydro-[1,2,4]triazolo[4,3-a]quinazolin-4(5H)-yl)propyl)benzamide], the “Solub.” value (Aqueous solubility; aqueous solubility) was 13.7 µg/mL and the “t1/2 (min, RLM)” value [1] was greater than 30 min.
With `CS(=O)(=O)NCCCn1c(=O)c2cc(F)ccc2n2c(=S)[nH]nc12` [compound 76] the “Solub.” value (Aqueous solubility; aqueous solubility) was 34 µg/mL and the “t1/2 (min, RLM)” value [1] was greater than 30 min.
For `O=C(CC1CCNCC1)NCCCn1c(=O)c2cc(F)ccc2n2c(=S)[nH]nc12` [compound 116], the “Solub.” value (Aqueous solubility; aqueous solubility) was 37.5 µg/mL and the “t1/2 (min, RLM)” value [1] was greater than 30 min.
In the case of `CCCn1c(=O)c2ccccc2n2c(=S)n(CN(C)C3CC3)nc12` [compound 35], the “Solub. (μg/ml)” value (Aqueous solubility; aqueous solubility) was “Insol”.
For `NC1CCC(C(=O)NCCCn2c(=O)c3cc(F)ccc3n3c(=S)[nH]nc23)CC1` (stereo not drawn) [compound 111], the “Solub.” value (Aqueous solubility; aqueous solubility) was 38.8 µg/mL and the “t1/2 (min, RLM)” value [1] was greater than 30 min.
In the case of `NCCCCCC(=O)NCCCn1c(=O)c2cc(F)ccc2n2c(=S)[nH]nc12` [compound 100], the “Solub.” value (Aqueous solubility; aqueous solubility) was 31.8 µg/mL and the “t1/2 (min, RLM)” value [1] was greater than 30 min.
For `CC(C)n1c(=O)c2ccccc2n2c(=S)[nH]nc12` [compound 26], the “Solub.” value (Aqueous solubility; aqueous solubility) was 19.5 µg/mL.
With `CC(C)(C)OC(=O)CC[C@@H](NC(=O)OC(C)(C)C)C(=O)NCCCn1c(=O)c2cc(F)ccc2n2c(=S)[nH]nc12` [compound 102] the “Solub.” value (Aqueous solubility; aqueous solubility) was 20.4 µg/mL and the “t1/2 (min, RLM)” value [1] was 25.1 min.
In the case of `O=C(NCCCn1c(=O)c2cc(F)ccc2n2c(=S)[nH]nc12)C1CCOCC1` [compound 115], the “PAMPA” value was 8.0 ×10⁻⁶ cm/s and the “Solub.” value (Aqueous solubility; aqueous solubility) was less than 1 µg/mL.
With `O=c1c2cc(F)ccc2n2c(=S)[nH]nc2n1CCc1cccnc1` [Cmpd 84] the “PAMPA” value was less than 1 ×10⁻⁶ cm/s.
With `O=c1c2cc(F)ccc2n2c(=S)[nH]nc2n1CCCc1ccccc1` [compound 53] the “Solub.” value (Aqueous solubility; aqueous solubility) was less than 1 µg/mL and the “t1/2 (min, RLM)” value [1] was 8.8 min.
In the case of `CCn1c(=O)c2cc(F)ccc2n2c(=S)[nH]nc12` [compound 63], the “Solub.” value (Aqueous solubility; aqueous solubility) was greater than 39 µg/mL and the “t1/2 (min, RLM)” value [1] was greater than 30 min.
With “4-(3-aminopropyl)-9-fluoro-1-thioxo-2,4-dihydro-[1,2,4]triazolo[4,3-a]quinazolin-5(1H)-one [compound 69]” the “t1/2 (min, RLM)” value [1] was greater than 30 min.
With `CC(C)(C)OC(=O)N1CC(CCn2c(=O)c3cc(F)ccc3n3c(=S)[nH]nc23)C1` [compound 86] the “PAMPA” value was 229 ×10⁻⁶ cm/s and the “Solub.” value (Aqueous solubility; aqueous solubility) was 15 µg/mL.
With `CN1CCN(CCn2c(=O)c3cc(F)ccc3n3c(=S)[nH]nc23)CC1` [compound 91] the “Solub.” value (Aqueous solubility; aqueous solubility) was greater than 54 µg/mL and the “t1/2 (min, RLM)” value [1] was greater than 30 min.
With `NCCOCCOCCOCCC(=O)NCCCn1c(=O)c2cc(F)ccc2n2c(=S)[nH]nc12` [compound 98] the “Solub.” value (Aqueous solubility; aqueous solubility) was 36.1 µg/mL and the “t1/2 (min, RLM)” value [1] was greater than 30 min.
For `CN1CCCC1CCn1c(=O)c2cc(F)ccc2n2c(=S)[nH]nc12` (stereo not drawn) [compound 87], the “Solub.” value (Aqueous solubility; aqueous solubility) was 17.8 µg/mL and the “t1/2 (min, RLM)” value [1] was greater than 30 min.
For `CC(C)(C)OC(=O)CC[C@H](NC(=O)OC(C)(C)C)C(=O)NCCCn1c(=O)c2cc(F)ccc2n2c(=S)[nH]nc12` [Cmpd 103], the “PAMPA” value was 744 ×10⁻⁶ cm/s.
In the case of `CCCn1c(=O)c2ccccc2n2c(=S)n(CN(CC)CC(C)C)nc12` [compound 38], the “Solub.” value (Aqueous solubility; aqueous solubility) was 8.7 µg/mL.
In the case of `CC(C)CNC(=O)CCn1c(=O)c2ccccc2n2c(=S)[nH]nc12` [compound 32], the “Solub.” value (Aqueous solubility; aqueous solubility) was 30.8 µg/mL.
